US5017581A, “Pyridonecarboxylic acids and their anti-bacterial compositions” (Shionogi & Co., Ltd., priority 1988, dated 1991)
≈ marks a conversion by molar mass, not a printed value.

What was measured:
[1] = test system: Staphylococcus aureus Smith; test: Antibacterial spectrum, MIC (method of the Japan Society of Chemotherapy), A; assay type: cell-based; settings: 10^6 cells/ml, read-out: MIC (minimum grouth inhibitory concentration)
Protocol: (§1) The antibacterial activity was determined by measuring minimum grouth inhibitory concentrations (MICs) in accordance with the method as designated by the Japan Society of Chemotherapy. A, B, C, and D in the table indicate the following meanings: A: Staphylococcus aureus Smith The test microorganisms were used at 10^6 cells/ml.

[2] = test system: Staphylococcus aureus SR 14 (R); test: Antibacterial spectrum, MIC (method of the Japan Society of Chemotherapy), B; assay type: cell-based; settings: 10^6 cells/ml, read-out: MIC (minimum grouth inhibitory concentration)
Protocol: The antibacterial activity was determined by measuring minimum grouth inhibitory concentrations (MICs) in accordance with the method as designated by the Japan Society of Chemotherapy.
A, B, C, and D in the table indicate the following meanings:
B: Staphylococcus aureus SR 14 (R)
The test microorganisms were used at 10^6 cells/ml.

[3] = test system: Escherichia coli 7437; test: Antibacterial spectrum, MIC (method of the Japan Society of Chemotherapy), C; assay type: cell-based; settings: 10^6 cells/ml, read-out: MIC (minimum grouth inhibitory concentration)
Protocol: as §1, with “C: Escherichia coli 7437” for “A: Staphylococcus aureus Smith”

[4] = test system: Escherichia coli PC 51149 B; test: Antibacterial spectrum, MIC (method of the Japan Society of Chemotherapy), D; assay type: cell-based; settings: PC51149B, 10^6 cells/ml, read-out: MIC (minimum grouth inhibitory concentration)
Protocol: as §1, with “D: Escherichia coli PC 51149 B” for “A: Staphylococcus aureus Smith”

[5] = Convulsion and psychotropic action in mice after oral administration; assay type: in vivo; settings: orally, dose of 10 mg

Structure (SMILES) | MIC [1] [µg/mL] | MIC [2] [µg/mL] | MIC [3] [µg/mL] | MIC [4] [µg/mL] | convulsion and psychotropic action [5]
C=C1CN(c2c(F)cc3c(=O)c(C(=O)O)cn(C4CC4)c3c2Cl)CC1N (stereo not drawn) [Compound I-2, 1-Cyclopropyl-8-chloro-6-fluoro-7-(3-amino-4-methylenepyrrolidin-1-yl)-1,4-dihydro-4-oxo-3-quinolinecarboxylic acid] | 0.01 (≈ 0.0265 µM) | 0.02 (≈ 0.0529 µM) | < 0.003 | < 0.003 | –
C=C1CN(c2c(F)cc3c(=O)c(C(=O)O)cn(C4CC4)c3c2F)CC1N (stereo not drawn) [Compound I-1, 1-Cyclopropyl-6,8-difluoro-7-(3-amino-4-methylenepyrrolidin-1-yl)-1,4-dihydro-4-oxo-3-quinolinecarboxylic acid] | 0.05 (≈ 0.138 µM) | 0.05 (≈ 0.138 µM) | < 0.003 | < 0.003 | neither convulsion nor psychotropic action was observed
C=C1CN(c2c(F)c(N)c3c(=O)c(C(=O)O)cn(C4CC4)c3c2F)CC1N (stereo not drawn) [Compound I-3, 1-Cyclopropyl-5-amino-6,8-difluoro-7-(3-amino-4-methylenepyrrolydin-1-yl)-1,4-dihydro-4-oxo-3-quinolinecarboxylic acid] | 0.02 (≈ 0.0531 µM) | 0.05 (≈ 0.133 µM) | < 0.003 | < 0.003 | –
C=C1CN(c2c(F)cc3c(=O)c(C(=O)O)cn(C4CC4)c3c2F)CC1NC (stereo not drawn) [Compound I-5, 1-Cyclopropyl-6,8-difluoro-7-(3-methylamino-4-methylenepyrrolidin-1-yl)-1,4-dihydro-4-oxo-3-quinolinecarboxylic acid] | 0.05 (≈ 0.133 µM) | 0.05 (≈ 0.133 µM) | < 0.003 | 0.006 (≈ 0.016 µM) | –
C=C1CN(c2nc3c(cc2F)c(=O)c(C(=O)O)cn3C2CC2)CC1N (stereo not drawn) [Compound I-4, 1-Cyclopropyl-6-fluoro-7-(3-amino-4-methylenepyrrolidin-1-yl)-1,4-dihydro-4-oxo-1,8-naphthyridine-3-carboxylic acid] | 0.1 (≈ 0.29 µM) | 0.1 (≈ 0.29 µM) | < 0.003 | 0.006 (≈ 0.0174 µM) | –
